According to patent publication US20250017907A1, “METHOD FOR PREVENTING AND/OR TREATING LIVER FIBROSIS BY USING 6-METHOXYBENZOXAZOLINONE AND COIX LACHRYMA-JOBI L. EXTRACT COMPRISING 6-METHOXYBENZOXAZOLINONE” (Taichung District Agricultural Research and Extension …, priority 2023, published 2025):

Experiments:
[1] = test system: TAA-induced liver fibrotic C57BL/6J mice; assay: Liver weight, body weight and liver index; assay type: in vivo; conditions: CX groups (20 and 50 mg/kg oral, 6 weeks); vs TAA group
Description: (§1) For tests of adlay extracts, mice were randomly divided into the following seven groups (n=6, per group): (1) No treatment group (NT, normal diet), (2) Thioacetamide group (TAA, 200 mg/kg, normal diet), (3) 10% adlay seed powder (ASP) group, (4) 1% adlay leaf powder (ALP) group, (5) 1% adlay seed polysaccharide (ASPS) group, (6) 0.025% adlay seed ethanolic extract (ASE) group and (7) 0.1% ASE group. NT group received pure saline, and other groups intraperitoneally injected with TAA dissolved into saline thrice a week.
(§2) For tests of CX, mice were randomly divided into the following four groups (n=8, per group): (1) NT group, (2) TAA group (200 mg/kg), (3) CX group (CX20, 20 mg/kg), and (4) CX group (CX50, 50 mg/kg). NT group received pure saline, and other groups intraperitoneally injected with TAA dissolved into saline thrice a week. Moreover, NT group and TAA group also received 5% propylene glycol, while CX groups received CX dissolved into 5% propylene glycol (prepared in 0.9% saline) by oral gavage once per day.
The procedure of the schematic diagram of animal experiment design in adlay groups is described as follows. To examine the effects of adlay on liver fibrosis, this example established a TAA-induced liver fibrotic C57BL/6J mouse model. FIG. 1 is a schematic diagram of animal experiment design in adlay groups. In this experiment, C57BL/6J mice were intraperitoneally injected with thioacetamide (TAA) to induce liver fibrosis. At six weeks of age, the mice were randomly divided into seven groups fed with different diets (NT, TAA, 10% ASP, 1% ALP, 1% ASPS, 0.025% ASE and 0.1% ASE, n=6). After co-feeding for 6 weeks during which intraperitoneal injection of TAA was administered thrice a week, the mice were finally sacrificed at 12 weeks of age. NT represents no treatment, ASP represents adlay seed powder, ALP represents adlay leaf powder, ASPS represents adlay seed polysaccharide, and ASE represents adlay seed ethanolic extract. […]

[2] = test system: TAA-induced liver fibrotic C57BL/6J mice; assay: Real-time PCR of liver fibrotic and inflammatory genes; assay type: in vivo; conditions: CX groups (20 and 50 mg/kg oral, 6 weeks); vs TAA group
Description: as §1, §2
(§3) The procedure of real-time PCR analysis is as follows. Total RNA was extracted with the Trizol reagent (Ambion, USA) and then reverse-transcribed into cDNA with RevertAid First Strand cDNA Synthesis kit (Thermo Scientific, USA). The PCR amplification was accomplished with SYBR Green PCR Master Mix (Applied Biosystems, USA), and the mRNA expression of the gene was normalized to GAPDH. All primers were obtained from Genomics (Genomics, Taiwan). Rat primer sequences are used for real-time PCR of HSC-T6 cells, and mouse primer sequences are used for real-time PCR of C57BL/6J mice.

[3] = test system: TGF-β1-activated HSC-T6 cells; assay: Real-time PCR of inflammatory factors; assay type: cell-based, rat; conditions: HSC-T6, TGF-β1 10 ng/mL, 24 h
From the text: as §3
(§4) The procedure of cell cultures is as follows. HSC-T6 cell is an immortalized cell line isolated from transformed SV40 large T-antigen transformed primary stellate cells of male Sprague-Dawley rats. HSC-T6 cells were maintained in Dulbecco's Modified Eagle Medium (DMEM, Sigma-Aldrich, USA) containing 8% fetal bovine serum (FBS, HyClone, USA), 100 U/mL of penicillin, and 100 μg/mL of streptomycin (Gibco, USA).
(§5) For hepatic stellate cell (HSC) activation, cells were cultured for 24 h and then replaced with serum-free medium for 24 h, after that, treated with transforming growth factor beta 1 (TGF-β1) (10 ng/mL) in the presence or absence of CX (10-100 μM) or adlay leaf, root, and seed extracts (25 and 50 μg/mL) for 24 h, or 30 min for intracellular signal pathways.

[4] = test system: PI3K and ERK signaling pathway; assay: Western blot of PI3K and ERK signaling pathway; assay type: cell-based, rat; conditions: TGF-β1-activated HSC-T6 cells, CX
Description: as §4, §5
The procedure of Western blot analysis is as follows. Cells were lysed in RIPA buffer with protease inhibitor and then centrifuged at 4° C., 12000 rpm for 10 min. Collected the supernatant and quantified the total protein concentration to 50 μg. After heating at 95° C. for 10 min, the protein samples were separated by SDS-PAGE gel, transferred to PVDF membrane, followed by blocking with 6% milk, incubated with primary antibodies at 4° C., overnight and secondary antibodies at room temperature for 1 h. Blot images were visualized on Amersham Imager 680 (Cytiva, USA) with ECL agent (GeneDireX, USA).

COc1ccc2[nH]c(=O)oc2c1 [CX, 6-methoxybenzoxazolinone]
change in body weight caused by TAA [1]: did not significantly improve
liver index (ratio of liver weight to body weight) [1]: decreased significantly
liver weight [1]: reduced
TAA-induced downregulation of liver IL-10 mRNA level [2]: significantly decreased
TAA-induced upregulation of liver COL1A1 mRNA [2]: significantly decreased
TAA-induced upregulation of liver IL-6 mRNA level [2]: significantly decreased
TAA-induced upregulation of liver TNF-α mRNA level [2]: significantly decreased
TAA-induced upregulation of liver α-SMA mRNA [2]: significantly decreased
TGF-β1-induced IL-6 mRNA level ([3]; CX 10, 20, 50, 100 μM): dose-dependently decreased
TGF-β1-induced TNF-α mRNA level ([3]; CX 10, 20, 50, 100 μM): dose-dependently decreased
IL-10 mRNA level ([3]; CX at the highest dose (100 μM)): significantly increased
phosphorylation of ERK (p-ERK1/2, Western blot) [4]: did not cause significant changes
phosphorylation of PI3K (p-PI3K, Western blot) [4]: did not cause significant changes
